ChEMBL document CHEMBL1148685, “3,4-Dihydro-1H-[1,3]oxazino[4,5-c]acridines as a new family of cytotoxic drugs” (Bioorg Med Chem Lett, 2006)
Activity calls are given as the source filed them. The rule behind the calls is not given here.

Key:
Type in all cases: functional, cell-based
Details in all cases: Homo sapiens
HT-29 [1] = assay: Cytotoxicity against HT29 cell line
HT-29 [2] = assay: Cytotoxicity against HT29 cells in presence of Escherichia coli nitroreductase
HT-29 [3] = assay: Cytotoxicity against HT29 cells in hypoxic condition after 5 hrs

Structure (SMILES) | IC50 (HT-29 [1]) | IC50 (HT-29 [2]) | Activity (HT-29 [3])
c1ccc(C2Nc3ccc4cc5ccccc5nc4c3CO2)cc1 (stereo not given) | 0.4 µM |  | 
ClCC1Nc2ccc3cc4ccccc4nc3c2CO1 (stereo not given) | 1.25 µM |  | 
BrCC1Nc2ccc3cc4ccccc4nc3c2CO1 (stereo not given) | 1.25 µM |  | 
COc1cccc2c1C(=O)c1c(O)c3c(c(O)c1C2=O)C[C@@](O)(C(=O)CO)C[C@@H]3O[C@H]1C[C@H](N)[C@H](O)[C@H](C)O1 [DOXORUBICIN] | 2.37 µM |  | 
c1ccc2nc3c4c(ccc3cc2c1)NCOC4 | 2.25 µM |  | 
c1ccc(COCC2Nc3ccc4cc5ccccc5nc4c3CO2)cc1 (stereo not given) | 4 µM |  | 
O=[N+]([O-])c1ccc(C2Nc3ccc4cc5ccccc5nc4c3CO2)cc1 (stereo not given) | 2.3 µM | 0.2 µM | inactive
CC1Nc2ccc3cc4ccccc4nc3c2CO1 (stereo not given) | 0.6 µM |  | 
